# Measurements taken from US7338799B2 (Vanderbilt University, priority 2001, dated 2008).
# Like-named read-outs stand apart in the source and are kept apart here.
# T1: hCHT (Homo sapiens, UniProt Q9GZV3)
# T1 construct: The hCHT cDNA encodes a protein of 580 amino acids; expressed in transfected cells; host or cells: COS-7 (transient, FuGene 6, pcDNA3)
# T1 sequence (Q9GZV3 1-580): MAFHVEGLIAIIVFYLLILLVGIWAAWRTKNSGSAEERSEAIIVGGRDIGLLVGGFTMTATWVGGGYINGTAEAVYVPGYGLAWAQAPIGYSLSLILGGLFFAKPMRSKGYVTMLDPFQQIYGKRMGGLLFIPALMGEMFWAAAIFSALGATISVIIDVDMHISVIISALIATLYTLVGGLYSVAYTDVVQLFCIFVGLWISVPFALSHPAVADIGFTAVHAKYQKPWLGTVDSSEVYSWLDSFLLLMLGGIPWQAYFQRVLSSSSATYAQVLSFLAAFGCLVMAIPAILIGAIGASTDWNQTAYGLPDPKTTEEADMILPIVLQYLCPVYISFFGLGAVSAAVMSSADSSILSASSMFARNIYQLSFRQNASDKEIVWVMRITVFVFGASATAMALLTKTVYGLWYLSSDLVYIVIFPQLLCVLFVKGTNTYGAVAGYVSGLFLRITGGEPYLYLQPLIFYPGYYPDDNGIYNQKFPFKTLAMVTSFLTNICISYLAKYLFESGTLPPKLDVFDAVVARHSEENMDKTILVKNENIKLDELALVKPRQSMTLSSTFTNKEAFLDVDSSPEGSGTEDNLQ
# T2: mCHT (Mus musculus, UniProt Q8BGY9, Q119K/Q86H)
# T2 construct: expressed in transfected cells; host or cells: COS-7 (transient, pcDNA3)
# T2 sequence (Q8BGY9 with tags, fused parts or gaps Q86H/Q119K): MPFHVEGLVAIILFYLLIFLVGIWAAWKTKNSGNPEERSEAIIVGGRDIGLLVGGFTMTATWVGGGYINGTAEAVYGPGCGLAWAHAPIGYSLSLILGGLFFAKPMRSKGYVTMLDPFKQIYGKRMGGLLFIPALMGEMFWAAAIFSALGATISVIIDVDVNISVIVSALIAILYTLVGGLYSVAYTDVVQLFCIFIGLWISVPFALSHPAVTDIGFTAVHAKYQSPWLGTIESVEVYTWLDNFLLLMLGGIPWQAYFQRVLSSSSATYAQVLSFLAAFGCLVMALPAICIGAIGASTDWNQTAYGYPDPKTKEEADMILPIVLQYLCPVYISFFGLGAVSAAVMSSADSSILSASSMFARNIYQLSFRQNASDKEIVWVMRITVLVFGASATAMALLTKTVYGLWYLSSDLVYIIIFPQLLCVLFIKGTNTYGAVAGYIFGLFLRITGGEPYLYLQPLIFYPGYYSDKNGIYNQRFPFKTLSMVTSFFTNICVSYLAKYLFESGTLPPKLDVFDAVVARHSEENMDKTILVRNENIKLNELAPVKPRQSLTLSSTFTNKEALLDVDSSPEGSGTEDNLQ
# B1: hCHT (Homo sapiens) (protein)
# chain: T1 sequence (Q9GZV3 1-580)
# B2: mCHT (Mus musculus; Q119K/Q86H) (protein)
# chain: T2 sequence (Q8BGY9 with tags, fused parts or gaps Q86H/Q119K)
# Assays:
# hCHT [1] = target: T1, hCHT; experiment: [3H]HC-3 radioligand binding in membrane fractions of hCHT transfected COS-7 cells; conditions: for Ki: 10 nM [3H]HC-3, hCHT transfected COS-7 cell membranes, read-out: Ki in inhibiting [3H]HC-3 binding
# Protocol: COS-7 cells were transfected with a pcDNA3 vector containing hCHT cDNA using the FuGene 6 transfection reagent (Roche Diagnostics) following the manufacturer's protocols. Briefly, COS-7 cells were cultured in Dulbecco's modified Eagles' medium (DMEM) supplemented with 10% fetal bovine serum (Hyclone), 100 μg/ml of penicillin and streptomycin at a density of 3-4 million cells in 150 mm culture dishes or 5×10^4 cells per well in 24 well dishes (Falcon). After 24 hr, cells were transfected and 48 hr later, the cells were harvested and processed for membrane binding and whole cell or vesicle transport assays.
# Monolayers of hCHT transfected COS-7 cells were washed with 30 ml of HTE buffer and harvested in 10 ml of homogenization buffer (0.32 M sucrose in HTE buffer). Cells were homogenized at 20,000 rpm for 25 sec using a Polytron tissue homogenizer (Brinkman). The homogenate was centrifuged at 100,000×g for 45 min at 4° C. The resulting pellet was suspended in 2 ml of HTE buffer, assayed for protein content (Bradford method; BioRad) and 50 μg of the membrane suspension (1 μg/μl) was transferred to each tube in triplicate. Unless otherwise indicated, all binding assays were performed in the presence of 150 mM NaCl in HTE buffer. Assays were initiated by the addition of [^3H]HC-3 (127 Ci per mmol; NEN Life Science Products, 10 nM final concentration). After a 1 hr incubation at room temperature, membranes were rapidly filtered through glass fiber GF/B filters (Brandel) soaked in 0.3% polyethylenimine (Sigma) in HTE buffer and accumulated radioactivity was quantified using liquid scintillation spectrometry (Packard). To test the ion dependence of hCHT binding activity, Na^+ was replaced in the assay buffer with equimolar concentrations of Li^+ whereas Cl^− was replaced with equimolar concentrations of isethionate. Non-specific binding was quantified by measuring [^3H] […] Data for binding and transport assays (see below) were analyzed using nonlinear least squares curve fitting and Scatchard transformations (Kaleidagraph, Abelbeck).
# hCHT [2] = target: T1, hCHT; experiment: [3H]choline transport in resealed membrane vesicles from hCHT transfected COS-7 cells; assay type: biochemical
# Protocol: To assay CHT activity in resealed membrane vesicles from hCHT-transfected mammalian cells, the inventors transiently transfected COS-7 cells with hCHT as described herein above and prepared membrane fractions as described for binding assays. After obtaining the membrane fractions, resealed membrane vesicles were prepared as described by Fisher et al., 1992 (Fishe et al., 1992) with slight modifications. The membrane pellets were resuspended in 2 ml of HTE buffer (˜2 μg/μl) and the suspension was rotated gently at 4° C. for 45 min. Membrane vesicle suspensions were centrifuged (27,000×g) for 20 min at 4° C. and the resulting pellet suspended in 2 ml of Na^+ and Cl^− free HTE buffer. Protein content of the suspension was determined (Bradford; BioRad) and 50 μg of the vesicle suspension (1 μg/μl) was transferred to each tube for triplicate assays. […] After a 5 min incubation at room temperature, vesicles were rapidly filtered through Whatman GF/B filters soaked in 0.3% polyethylenimine in HTE buffer and the accumulated radioactivity quantified as described for binding assays. […] In all experiments, non-specific uptake was quantified by determining uptake in the presence of 1 μM HC-3 and subtracted from the total uptake to yield specific transport.
# mCHT [3] = target: T2, mCHT; experiment: [3H]HC-3 binding in membrane fractions of mCHT transfected COS-7 cells; conditions: for Ki: mCHT transfected COS-7 cell membrane, read-out: Ki in inhibiting [3H]HC-3 binding
# mCHT [4] = target: T2, mCHT; experiment: choline uptake in resealed membrane vesicles from mCHT transfected COS-7 cells; assay type: biochemical; conditions: for IC50: resealed membrane vesicles, mCHT
# [5] = substrate: C[N+](C)(C)CCO; experiment: cells, lysate or membranes named
molecule,measurement,setting,value
"CC(=O)OCC[N+](C)(C)C [ACh, acetylcholine]",Ki,hCHT [1]; ACh in the presence of 10 μM physostigmine,433 µM
same,Ki,hCHT [2],0.57 µM
same,Ki,mCHT [3]; ACh in the presence of physostigmine,433 µM
"C[N+]1(C)CCOC(O)(c2ccc(-c3ccc(C4(O)C[N+](C)(C)CCO4)cc3)cc2)C1.[Br-].[Br-] (stereo not drawn) [HC-3, hemicholinium-3]",Ki,hCHT [1],0.004 µM
same,Hill coefficient of [3H]HC-3 binding,hCHT [1]; single site kinetics,0.99
same,effect of addition of HC-3 on [3H]choline uptake,"hCHT [2]; hCHT vesicles against vector transfected controls, data not shown",reduced [^3H]choline uptake to levels seen in vector transfected COS-7 membrane vesicles
same,Ki,"hCHT [2]; read-out: Ki for inhibition of [3H]choline uptake, resealed membrane vesicles, hCHT, 20 nM [3H]choline",0.005 µM
same,effect on choline uptake,"mCHT [4]; 1 μM HC-3, mCHT vesicles against vector transfected",reduced choline uptake to levels seen in vector transfected COS-7 membrane vesicles
same,IC50,mCHT [4]; read-out: IC50 for inhibition of mCHT-mediated choline uptake,0.005 µM
same,Kd,"mCHT [3]; Scatchard transformation, mCHT expressing membranes, read-out: equilibrium dissociation constant (Kd) of [3H]HC-3 binding",0.005 µM
same,Ki,mCHT [3],0.005 µM
C[N+](C)(C)CCO [choline],Ki,hCHT [2],0.123 µM
same,IC50,mCHT [4],0.123 µM
B1,Km,"[5]; other: resealed membrane vesicles, hCHT",1.6 µM
B2,Km,"[5]; other: Eadie-Hofstee plot, single site, mCHT vesicles",2 µM
